Laboratory results: patent US6479493B1, “Methods for treatment of type I diabetes” (Cell Pathways, Inc., priority 2001, dated 2002)
Read-outs that look alike come from different tables or passages of the source.

Legend:
[1] = molecular target: T1, cGMP binding sites of the GST-cGB-PDE5 fusion protein (Homo sapiens, UniProt O76074); experiment: cGMP binding assay with GST-cGB-PDE5 fusion protein; settings: for competition with cGMP binding at high concentration: 100 μM compound versus cGMP 2 μM
T1 construct: made in house; host or cells: E. coli BL21 (DE3)
Source text: RT-PCR method is used to obtain the cGB domain of PDE5 with forward and reverse primers designed from bovine PDE5A cDNA sequence (McAllister-Lucas L. M. et al, J. Biol. Chem. 268, 22863-22873, 1993) and the selection among PDE 1-10 families. 5′-3′, Inc. kits for total RNA followed by oligo (dT) column purification of mRNA are used with HT-29 cells. […] It is then cloned into pGEX-5X-3 glutathione-S-ransferase (GST) fusion vector (Pharmacia Biotech )with tac promoter, and EcoRI and XhoI cut sites. The fusion vector is then transfected into E. Coli BL21 (DE3) bacteria (Invitrogen). The transfected BL21 bacteria is grown to log phase, and then IPTG is added as an inducer. The induction is carried at 20° C. for 24 hrs. The bacteria are harvested and lysed. The soluble cell lysate is incubated with GSH conjugated Sepharose 4B (GSH-Sepharose 4B). The GST-cGB-pDE5 fusion protein can bind to the GSH-Sepharose beads, and the other proteins are washed off from beads with excessive cold PBS.
Then, the mixture is transferred to Brandel MB-24 cell harvester with GF/B as the filter membrane followed by 2 washes with 10 mL of cold 5 mM potassium buffer(pH 6.8). The membranes are then cut out and transferred to scintillation vials followed by the addition of 1 mL of H2O and 6 mL of Ready Safe™ liquid scintillation cocktail to each vial. The vials are counted on a Beckman LS 6500 scintillation counter.
The quenching by filter membrane or other debris are also calibrated.

native bovine PDE5 = native bovine PDE5 (Bos taurus, UniProt Q28156); settings: read-out: Kd of cGMP binding, native bovine PDE5; cited from earlier work
U937 cells = experiment: apoptosis induction of U937 cells, active caspase 3 indirect immunofluorescence; format: cell-based; settings: 24 hours
Procedure: U937 cells (from ATCC Rockville, Md.) were grown in RPMI media supplemented with 5% FCS, glutamine, antibiotic/antimycotic and sodium pyruvate. Total RNA was isolated from two U937 cultures, one treated with 5 nM TPA for 48 hours and one grown in normal media as listed above, using the Rouche High Pure RNA Isolation Kit (cat #1 828 665) as per manufacturers protocol. cDNA was then synthesized from the total RNA using GibcoBRL SuperscriptII (Cat #18064-022) reverse transcriptase as per manufacturers protocol. The resulting cDNA was used as a template for RT-PCR reactions using primer sets specific for PDE2 (forward: […], reverse: […]) or PDE5 (forward: […], reverse: […]). mRNA for PDE2 and 5 were both present in the untreated U937 cells. Upon treatment with TPA, the relative amounts of PDE2 mRNA increased 5 fold. Therefore, U937 cells treated with TPA and driven to differentiate into an activated macrophage like state have elevated levels of PDE2 mRNA (see FIG. 1).
The presence of PDE2 and PDE5 protein within U937 cells was confirmed by indirect immunofluorescence (IIF). U937 cells were cultured as above. Two U937 cultures, one grown in the presence of 5 nM TPA for 48 hours and one grown in normal media were processed. All cultures were collected by centrifugation (Shandon Cytospin, 2 minutes @600 rpm) onto poly-L lysine-coated slides and immediately fixed in fresh 3% paraformaldehyde buffered in PBS for 10 minutes. Adherent cultures were grown on coverslips and fixed as above. Cells were permeablized in 0.2% Triton-100 for 2 minutes. Slides were blocked with blocking buffer (5% goat serum, 5% glycerol, 1% gelatin from cold water fish skin and 0.04% NaN3 in PBS) for 1 hour at room temperature.
Slides were then incubated for 1 hour at 37° C. in a humid chamber with antibodies specific for PDE2 (generated in a sheep against the peptide […]) or PDE5 (generated in sheep against the peptide […]). […]
The level of apoptosis in U937 cells was quantified by scoring 500 consecutive cells for the presence of active caspase 3. […]

SMILES	competition with cGMP in binding to the cGMP binding sites of GST-cGB-PDE5 ([1]; 3H-cGMP 2 μM, 22° C., 1 hour)	further results
CCCCOC1C2OP(=O)(O)OCC2OC1n1cnc2c(N)ncnc21 (stereo not drawn) [2′-O-butyl-cAMP]	did not compete with cGMP in binding	
CCCCOC1C2OP(=O)(O)OCC2OC1n1cnc2c(=O)[nH]c(N)nc21 (stereo not drawn) [2′-O-butyl-cGMP]	did not compete with cGMP in binding	
Nc1ncnc2c1ncn2[C@@H]1O[C@@H]2COP(=O)(O)O[C@H]2[C@H]1O [Cyclic AMP]		competition with cGMP in binding to the cGMP binding sites of GST-cGB-PDE5 [1]: did not compete with cGMP in binding
O=c1[nH]cnc2c1ncn2[C@@H]1O[C@@H]2COP(=O)(O)O[C@H]2[C@H]1O [Cyclic IMP]		competition with cGMP binding at high concentration [1]: can partially compete with cGMP
Nc1nc2c(nc(Br)n2[C@@H]2O[C@@H]3COP(=O)(O)O[C@H]3[C@H]2O)c(=O)[nH]1 [Example 8-bromo-cGMP, 8-bromo-cGMP]		competition with cGMP binding at high concentration [1]: can partially compete with cGMP
O=C([O-])C1CCN(c2nc(NCc3ccc4c(c3)OCO4)c3cc(Cl)ccc3n2)CC1.[Na+] [Example E4021]	None of the PDE5 inhibitors showed any competition with cGMP in binding	
CSc1ccc(/C=C2/C(C)=C(CC(=O)O)c3cc(F)ccc32)cc1 [Sulindac sulfide]	None of the PDE5 inhibitors showed any competition with cGMP in binding	
Nc1ccn([C@@H]2O[C@@H]3COP(=O)(O)O[C@H]3[C@H]2O)c(=O)n1 [cCMP]	did not compete with cGMP in binding	
Nc1nc2c(ncn2[C@@H]2O[C@@H]3COP(=O)(O)O[C@H]3[C@H]2O)c(=O)[nH]1 [cGMP, cyclic 3′,5′-guanosine monophosphate]		Kd ([1]; read-out: Kd of cGMP binding to GST-cGB-PDE5 fusion protein, two cGMP binding sites): 1600 ± 200 nM; Kd (native bovine PDE5): 1300 nM
O=c1ccn([C@@H]2O[C@@H]3COP(=O)(O)O[C@H]3[C@H]2O)c(=O)[nH]1 [cUMP, cyclic UMP]	did not compete with cGMP in binding	
CC1=C(CC(=O)O)c2cc(F)ccc2/C1=C\c1ccc(S(C)(=O)=O)cc1 [exisulind]	None of the PDE5 inhibitors showed any competition with cGMP in binding	
COc1ccc(C2CNC(=O)C2)cc1OC1CCCC1 (stereo not drawn) [rolipram]		levels of apoptosis (active caspase 3) (U937 cells; 0.5 uM): No increase in the levels of apoptosis compared to normal background was observed
CCCc1nn(C)c2c(=O)[nH]c(-c3cc(S(=O)(=O)N4CCN(C)CC4)ccc3OCC)nc12 [sildenafil]		levels of apoptosis (active caspase 3) (U937 cells; 0.3 nM): No increase in the levels of apoptosis compared to normal background was observed
CCCOc1ccccc1-c1nc2nn[nH]c2c(=O)[nH]1 [zaprinast]	None of the PDE5 inhibitors showed any competition with cGMP in binding	
